Experimental data taken from patent publication EP0994871B1, “NOVEL SUBSTITUTED NAPHTHOPYRANS” (TRANSITIONS OPTICAL, INC., priority 1997, dated 1998).

Legend:
[1] = Lambda max of the activated (colored) form in a diethylene glycol bis(allyl carbonate) composition; format: physicochemical; conditions: wavelength in the visible spectrum of maximum absorption of the activated (colored) form in a diethylene glycol bis(allyl carbonate) composition
Method: (§1) The Δ OD/Min, which represents the sensitivity of the photochromic compound's response to UV light, was measured over the first five (5) seconds of UV exposure, then expressed on a per minute basis. The saturation optical density (OD) was taken under identical conditions as the A OD/Min, except UV exposure was continued for 20 minutes for the examples in Table 1. The lambda max reported in Table 1 is the wavelength in the visible spectrum at which the maximum absorption of the activated (colored) form of the photochromic compound in a diethylene glycol bis(allyl carbonate) composition occurs. The Bleach Rate (T 1/2) is the time interval in seconds for the absorbance of the activated form of the naphthopyran in the test squares to reach one half the highest absorbance at room temperature (75°F, 23.9°C) after removal of the source of activating light.

[2] = Photochromic response of polymeric test squares on an optical bench; format: physicochemical; conditions: for ΔOD@ SATURATION: UV exposure continued for 20 minutes; for ΔOD@ SATURATION / ΔOD/MIN SENSITIVITY: test squares, 75°F (23.9°C); for ΔOD/MIN SENSITIVITY: measured over the first five (5) seconds of UV exposure, expressed on a per minute basis; for Bleach (T1/2): time for absorbance of the activated form in the test squares to reach one half the highest absorbance at room temperature (75°F, 23.9°C) after removal of activating light
Method: Testing was done with the photochromic naphthopyrans of the Examples incorporated into polymeric samples by the following method. The quantity of naphthopyran calculated to yield a 1.5 times 10^-3 molal solution was added to a flask containing 50 grams of a monomer blend of 4 parts ethoxylated bisphenol A dimethacrylate (BPA 2EO DMA), 1 part poly(ethylene glycol) 600 dimethacrylate, and 0.033 weight percent 2,2'-azobis(2-methyl propionitrile) (AIBN). The naphthopyran was dissolved into the monomer blend by stirring and gentle heating, if necessary. After a clear solution was obtained, it was poured into a flat sheet mold having the interior dimensions of 2.2 mm x 6 inches (15.24 cm) x 6 inches (15.24 cm). The mold was sealed and placed in a horizontal air flow, programmable oven set to increase the temperature from 40°C. to 95°C. over a 5 hour interval, hold the temperature at 95°C. for 3 hours and then lower it to 60°C. for at least 2 hours before the end of the curing cycle. After the mold was opened, the polymer sheet was cut using a diamond blade saw into 2 inch (5.1 centimeters) test squares.
The photochromic test squares prepared in Part A were tested for photochromic response rates on an optical bench. Prior to testing on the optical bench, the photochromic test squares were exposed to 365 nanometer ultraviolet light for about 15 minutes to activate the photochromic compounds and then placed into a 76°C oven for about 15 minutes to bleach or inactivate the photochromic compounds. The test squares were then cooled to room temperature, exposed to fluorescent room lighting for at least 2 hours and then kept covered for at least 2 hours prior to testing on an optical bench maintained at 75°F (23.9°C). The bench was fitted with a 150 watt Xenon arc lamp, a remote controlled shutter, a copper sulfate bath acting as a heat sink for the arc lamp, a Schott WG-320 nm cut-off filter which removes short wavelength radiation; neutral density filter(s) and a sample holder in which the square to be tested was inserted. A collimated beam of light from a tungsten lamp was passed through the square at a small angle normal to the square. After passing through the square, the light from the tungsten lamp was directed through a photopic filter attached to a detector. The photopic filter passes wavelengths such that the detector mimics the response of the human eye. The output signals from the detector(s) were processed by a radiometer.
Change in optical density (ΔOD) was determined by inserting a test square in the bleached state into the sample holder, adjusting the transmittance scale to 100%, opening the shutter from the Xenon lamp to provide ultraviolet radiation to change the test square from the bleached state to an activated (i.e., darkened) state, measuring the transmittance in the activated state, and calculating the change in optical density according to the formula A OD=log(100/%Ta) where %Ta is the percent transmittance in the activated state and the logarithm is to the base 10.
as §1

| SMILES | LAMBDA MAX (VISIBLE) [1] [nm] | ΔOD@ SATURATION [2] | ΔOD/MIN SENSITIVITY [2] | Bleach (T1/2) [2] [min] |
| --- | --- | --- | --- | --- |
| COc1ccc(C2(c3ccc(OC)cc3)C=Cc3c(Sc4ccccc4)c(OC(C)=O)c4ccccc4c3O2)cc1 [Example 4, 2,2-bis(4-methoxyphenyl)-5-phenylthio-6-acetoxy-2H-naphtho[1,2-b]pyran] | 516 | 0.23 | 0.22 | 0.7 |
| COc1ccc(C2(c3ccc(OC)cc3)C=Cc3c(C)c(OC(C)=O)c4ccccc4c3O2)cc1 [Example 6, 2,2-bis(4-methoxyphenyl)-5-methyl-6-acetoxy-2H-naphtho[1,2-b]pyran] | 506 | 0.37 | 0.14 | 2 |
| CC(=O)Oc1c(Sc2ccccc2)c2c(c3ccccc13)OC1(C=C2)C2CC3CC(C2)CC1C3 (stereo not drawn) [Example 8, 2,2'-spiroadamantylene-5-phenylthio-6-acetoxy-2H-naphtho[1,2-b]pyran] | 459 | 0.04 | 0.10 | – |
| COc1ccc(C2(c3ccc(OC)cc3)C=Cc3c(-c4cccn4C)c(OC(C)=O)c4ccccc4c3O2)cc1 [Example 1, 2,2-bis(4-methoxyphenyl)-5-(N-methylpyrrol-2-yl)-6-acetoxy-2H-naphtho[1,2-b]pyran] | 513 | 0.25 | 0.16 | 1.23 |
| COc1ccc(C2(c3ccc(OC)cc3)C=Cc3c(C(O)(c4ccccc4)c4ccccc4)c(O)c4ccccc4c3O2)cc1 [Example 10, 2,2-bis(4-methoxyphenyl)-5-diphenylmethylol-6-hydroxy-2H-naphtho[1,2-b]pyran] | 482 | 0.32 | 0.05 | – |
| COc1ccc(C2(c3ccc(OC)cc3)C=Cc3c(Sc4ccccc4)c(O)c4ccccc4c3O2)cc1 [Example 3, 2,2-bis(4-methoxyphenyl)-5-phenylthio-6-hydroxy-2H-naphtho[1,2-b]pyran] | 516 | 1.76 | 0.34 | >10 |
| COc1ccc(C2(c3ccc(OC)cc3)C=Cc3c(-c4ccc(OC)cc4OC)c(OC(C)=O)c4ccccc4c3O2)cc1 [Example 2, 2,2-bis(4-methoxyphenyl)-5-(2,4-dimethoxyphenyl)-6-acetoxy-2H-naphtho[1,2-b]pyran] | 511 | 0.55 | 0.15 | 4.13 |
| COc1c(C)c2c(c3ccccc13)OC1(C=C2)C2CC3CC(C2)CC1C3 (stereo not drawn) [Example 9, 2,2'-spiroadamantylene-5-methyl-6-methoxy-2H-naphtho[1,2-b]pyran] | 462 | 0.17 | 0.12 | – |
| Oc1c(Sc2ccccc2)c2c(c3ccccc13)OC1(C=C2)C2CC3CC(C2)CC1C3 (stereo not drawn) [Example 7, 2,2'-spiroadamantylene-5-phenylthio-6-hydroxy-2H-naphtho[1,2-b]pyran] | 462 | 0.47 | 0.15 | – |
| COc1ccc(C2(c3ccc(OC)cc3)C=Cc3c(Cl)c(OC(C)=O)c4ccccc4c3O2)cc1 [Example 5, 2,2-bis(4-methoxyphenyl)-5-chloro-6-acetoxy-2H-naphtho[1,2-b]pyran] | 462 | 0.07 | 0.08 | 0.9 |
